Test results reported in patent publication US11629192B2, “Methods and pharmaceutical compositions for the treatment of diseases mediated by the NRP-1/OBR complex signaling pathway” (INSERM (Institut National de la Sante et de la Recherche …, priority 2014, dated 2023).
Entries after “also recorded” stand apart in the source; their conditions may differ.

What was measured:
[1] = system: MDA-MB-231 and T47D-NRP-1; experiment: In vitro cell proliferation (MTT, (H3)-thymidine, BrdU incorporation); format: cell-based, human; conditions: Leptin stimulation
From the text: (§1) First MBA-MB-231 and T47D breast cancer cells line were selected for their high and undetectable NRP-1 expression respectively and the expression of Leptin receptor (OBR). In order to investigate NRP-1 and Leptin association in breast cancer cell line migration, we proceeded to NRP-1 expression silencing in MDA-MB-231 using either siRNA or shRNA approaches or NRP-1 overexpression in T47D. […] In contrast Leptin induced MDA-MB-231 migration that was decreased in siNRP-1 conditions. The in vitro data were confirmed in vivo by MDA-MB-231 and T47D xenografts in Nude mice. Modulation of NRP-1 expression either by shRNA silencing in MDA-MB-231 or by overexpression in T47D induced an increase of proliferation and a decrease of lymph node infiltration by MDA-MB-231-shNRP-1 and a decrease of proliferation and an increase of lymph node infiltration by T47D-NRP-1-RFP in mice treated with Leptin.
This observation can lead to conclude that NRP-1 induces tumor growth independently of Leptin/OBR pathway and that NRP-1/OBR complex signaling is in a favor of cell movement and migration induction. The implication of Leptin in tumor growth and metastasis has already been studied but the published data are contradictory depending on cancer cell type and model studies. […] In our case, in vitro leptin implication in cell growth has been evaluated by different methods. […]

[2] = system: T47D-NRP-1-RFP xenografts; experiment: Transcriptome of T47D-NRP-1-RFP xenografts treated or not with Leptin; format: in vivo, Nude mice; conditions: Leptin treated vs not treated T47D-NRP-1-RFP xenografts
From the text: Although the Chip-Seq was realized on MDA-MB-231, we opted to realize a transcriptome of T47D overexpressing NRP-1-RFP xenografts compared to T47D-wt and T47D-RFP treated or not with Leptin regarding to the lymph node infiltration induced by the NRP-1 overexpression and its increase by Leptin treatment. To determine any direct association of NRP-1 in gene expression, we realize first a global analysis of transcriptome of T47D-NRP-1 xenografts treated and not treated with Leptin (n=8) compared to T47D-wt and T47D-RFP xenografts treated and not treated with Leptin (n=8). […] The analysis of gene expression in Leptin treated T47D-NRP-1-RFP compared to no treated xenografts, highlighted 66 genes with 31 genes enriched in the Chip-Seq of MDA-MB-231 and that were not detected in T47D-wt and T47D-RFP treated or not with Leptin. Only 4 genes enriched in the Chip-Seq contained peaks associated to transcription factor binding site such as FUS (fused in sarcoma, fold increase 1.79; p=0.045) for Pol2 and C12orf45 (chromosome 12 open reading frame, fold increase 1.29; p=0.03) for CTCF. […] Since Plasminogen Activator Inhibitor 1 (PAI.1) related to SERPINE1 gene has been associated to breast cancer invasion and metastasis, we evaluated PAI.1 expression by immunostaining in T47D-NRP-1-RFP xenografts compared to T47D-wt and T47D-RFP.

[3] = system: T47D-NRP-1-RFP xenografts; experiment: T47D-NRP-1-RFP xenografts in Nude mice; format: in vivo
From the text: as §1
This need to be more investigated and may be a new strategy for combined anti-Leptin and anti-VEGF therapies in breast cancer. […] In vitro and in vivo data are a direct evidence of NRP-1 and Leptin association in breast cancer cell line migration. This implication of Leptin and NRP-1 are in agreement of published data but with no association between Leptin and NRP-1. […]

[4] = biological target: Human neuropilin-1 (hNRP-1) (Homo sapiens, UniProt O14786); experiment: Bio-Layer Interferometry (BLI) interaction with hNRP-1; format: binding
From the text: (§2) FIG. 5. NRP-1, OBR and leptin interactions confirmation using a Bio-Layer Interferometry (BLI) technology (fortebio.com/bli-technology.html): A-Leptin (OB) interaction to OBR is used as a positive control. Human neuropilin-1 (hNRP-1) interact with human OBR with a high affinity and specifically with human leptin (hOB) but not with murine leptin (mOB). VEGF165 binding to hNRP-1 is used as a positive control. B-Leptin and Avastin association increases MDA-MB231 cells transmigration through […] pore Insert. Avastin treatment may prevent a negative feedback control by VEGF of the pro-angiogenic signaling pathway of Leptin. VEGF binds to OBR which confirms our hypothesis that should be more investigated.

[5] = system: MDA-MB-231 cells; experiment: MDA-MB-231 cell migration / transmigration through insert; format: cell-based, human
From the text: as §2, §1
Leptin induced in vitro MDA-MB-231 migration that was decreased by NRP-1 repression using siRNA. Lel Xu et al have reported a direct evidence of NRP-1 up-regulation in tumors treated by anti-VEGF (Bevacizumab). […] This observation can be a first explanation of breast cancer therapy failure (increase of Progression survival while decreasing overall survival) by Bevacizumad and that was revoked by the FDA (Food and Drugs Administration, US).

interaction with hNRP-1 [4]: interact
Substance: Leptin: small non glycosylated protein, ligand of OBR
cell proliferation [1]: decreased; also recorded: unable to observe; also recorded: not able to observe a significant increase
C12orf45 gene expression, fold increase ([2]; p=0.03): 1.29 fold
FUS gene expression, fold increase ([2]; p=0.045): 1.79 fold
lymph node infiltration by T47D-NRP-1-RFP ([3]; Leptin treatment, human KL1 staining): significantly increased
tumor growth ([3]; T47D overexpressing NRP-1 xenograft treated with Leptin): tumor growth decrease
MDA-MB-231 migration induced by Bevacizumab, effect of Leptin ([5]; 10 μg/ml of Bevacizumab plus Leptin): increased
MDA-MB-231 migration ([5]; in vitro, Leptin alone): increased; also recorded: induced
